How the values were obtained:
[1] = target: T1, Amy A (α-amylase from Thermotoga maritima) (Thermotoga maritima, UniProt Q9S5Y2); test: HPLC of methyl glycosides after glucoamylase treatment; format: biochemical; settings: acceptor in alcoholysis; donor maltotriose 50 mM, 75 °C, choline chloride:urea (1:2):water
T1 construct: gene TM_1840; heterologous expression in E. coli
T1 sequence (Q9S5Y2 27-556): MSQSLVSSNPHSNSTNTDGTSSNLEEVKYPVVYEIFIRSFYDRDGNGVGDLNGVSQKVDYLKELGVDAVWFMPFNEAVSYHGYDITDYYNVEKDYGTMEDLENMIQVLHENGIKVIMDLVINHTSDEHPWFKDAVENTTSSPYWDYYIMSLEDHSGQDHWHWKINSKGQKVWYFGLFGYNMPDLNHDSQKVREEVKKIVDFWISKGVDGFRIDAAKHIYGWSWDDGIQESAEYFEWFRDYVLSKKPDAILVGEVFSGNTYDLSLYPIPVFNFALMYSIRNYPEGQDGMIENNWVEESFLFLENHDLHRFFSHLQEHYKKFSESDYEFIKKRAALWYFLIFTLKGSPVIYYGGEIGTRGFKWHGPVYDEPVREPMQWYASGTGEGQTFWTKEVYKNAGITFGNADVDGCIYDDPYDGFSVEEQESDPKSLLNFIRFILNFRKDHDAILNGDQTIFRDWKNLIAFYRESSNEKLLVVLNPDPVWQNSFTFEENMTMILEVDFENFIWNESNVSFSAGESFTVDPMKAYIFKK

[2] = target: T1, Amy A (α-amylase from Thermotoga maritima); test: HPLC of remaining maltotriose (partially purified enzyme); format: biochemical; settings: 50 mM maltotriose, 75 °C, 4 h; water:DES cosolvent series, hydrolysis to maltose and glucose

| Structure (SMILES) | HPLC of methyl glycosides after glucoamylase treatment [1] | HPLC of remaining maltotriose (partially purified enzyme) [2] |
| --- | --- | --- |
| CO [methanol] | Methyl-glucoside, methyl-maltoside, and interestingly, also methyl-maltotrioside were detected. |  |
| OC[C@H]1O[C@H](O[C@H]2[C@H](O)[C@@H](O)[C@@H](O[C@H]3[C@H](O)[C@@H](O)C(O)O[C@@H]3CO)O[C@@H]2CO)[C@H](O)[C@@H](O)[C@@H]1O (some centres unmarked) [maltotriose] |  | Substrate conversion was measured as the amount of maltotriose hydrolyzed to maltose and glucose. |

— PMC6862209, “Deep Eutectic Solvents as New Reaction Media to Produce Alkyl-Glycosides Using Alpha-Amylase from Thermotoga maritima” (International Journal of Molecular Sciences, 2019)
